Test: Related Substance data of Brinzolamide after sterilization (Gamma irradiation vs Dry heat sterilization)
Assay type: physicochemical
Conditions: for Impurities: Any individual impurity / Impurities: Related Compound B / Impurities: Related Compound C / Impurities: Related Compound D: Limit NMT 0.3%; for Impurities: Total: Limit NMT 1.0%
Method: The active pharmaceutical ingredient according to the present invention after Dry Heat Sterilization will essentially contain the same physico-chemical properties, its chemical purity and physical form as the starting material from which it is prepared. The degradation, especially chemical degradation caused by the present sterilization process is negligible. A table of comparison for Related Substance data of Brinzolamide after sterilization by Gamma irradiation and Dry heat sterilization is presented below.

[1] = after Gamma irradiation sterilization

**Q.** What does the source list for CCN[C@H]1CN(CCCOC)S(=O)(=O)c2sc(S(N)(=O)=O)cc21 [Brinzolamide, R 4-ethylamino-3,4-dihydro-2-(3-methoxy)propyl-2H-thieno[3,2-e]-1,2-thiazin-6-sulfonamide 1,1 dioxide]?
**A.** Impurities: Any individual impurity (after Dry Heat Sterilization): 0.09%; Impurities: Related Compound B (after Dry Heat Sterilization): 0.01%; Impurities: Related Compound C (after Dry Heat Sterilization): 0.06%; Impurities: Related Compound D (after Dry Heat Sterilization): 0.01%; Impurities: Total (after Dry Heat Sterilization): 0.43%; Impurities: Any individual impurity [1]: 0.73%; Impurities: Related Compound B [1]: 0.4%; Impurities: Related Compound C [1]: 0.06%; Impurities: Related Compound D [1]: 0.01%; Impurities: Total [1]: 1.98%

Reference: patent publication US9649319B2, “Process for manufacturing sterile brinzolamide ophthalmic suspension” (INDOCO REMEDIES LIMITED, priority 2012, dated 2017)
